Experimental data published in patent US5395947A, “Platinum(II) complex and processes for preparing the same” (Sunkyong Industries, Ltd., priority 1991, dated 1995).

What was measured:
[1] = Test for water solubility; type: physicochemical
Source text: 3. Test for water solubility
A standard plot of UV absorbance(220 nm) vs. concentration was made; and employed to determine water-solubility.
The mixture was then passed through a 0.45 micron disposable membrane filter before dilution and UV measurement.

murine leukemia L1210 = test: Antitumor activity test on murine leukemia L1210 in vivo; design: species or system male BDF1 mice; conditions: days 1, 5, 9
Protocol: 2. Antitumor activity test on murine leukemia L1210 in vivo
Murine leukemia L1210 cells were maintained in the peritoneal cavities of 6-week-old male DBA/2 mice by weekly transfer in accordance with the procedure described in cancer chemotherapy Reports, Part 3, 3(2), 7 (1972). Specifically, 1×10^6 leukemia cells were inoculated into the abdominal cavities of 6-week-old male BDF1 mice weighing 21±3 g on day 0. Each treatment group consisted of seven mice. The test compounds were dissolved or suspended in 0.5% carboxymethyl cellulose(CMC)solution (in water) and were administered intraperitoneally on days 1, 5, and 9 relative to the tumor inoculation.
Thirty mice of 6-week-old male BDF1 weighing 21±3 g were used as the control group, which were injected with 0.5% CMC solution only in the same manner as above.
Anti-tumor activities of the compounds were evaluated in terms of the T/C % values calculated from the mean survival time(T) of the compound-treated group over that(C) of the control group. [formula]

[2] = system: murine leukemia L1210 cells; test: Growth inhibition test on cultured murine leukemia L1210 cells; type: cell-based; conditions: 48 hours, 37° C., Trypan blue viability
Protocol: 1. Growth inhibition test on cultured murine leukemia L1210 cells
Murine leukemia L1210 cells(1×10^5) were treated with various concentrations of the compounds prepared in the above examples in RPMI 1640 medium supplemented with 10% fetal calf serum, and cultured in a 5% CO2 humidified incubator at 37° C. for 48 hours. Their viability, estimated by staining with 0.17% Trypan blue, was compared with that of control cells cultured in the identical medium without the compounds.

ICR mice = test: Acute toxicity test; type: in vivo; design: Lethality: unit not given here; conditions: for Lethality: 10080 min
Protocol: 7-week-old ICR mice(male: 34±2 g; female: 31±2 g) were fed with solid food and water under the condition of 23±1° C. temperature and 65±5% humidity before the test.
Each treatment group consisted of 6 mice. The test compounds were administered intraperitoneally.
For 7 days after the administration, the appearance and the fate of the tested animals were recorded. The dead animals were subjected to autopsy and their visible pathological changes were observed. Their viscerals were stored in 10% formalin solution.

Compound: CC1[O][Pt][O]C1=O.NCC1OC2(CCCCC2)OC1CN [Example 16, (L-lactato-O,O'){cyclohexanespiro-2'-[(4'R,5'R)-4',5'-bis(aminomethyl)-1',3'-dioxolane]}platinum(II)]
- Solubility in water ([1]; water): 3800 µg/mL
- T/C (%) (murine leukemia L1210; 12.5 mg/kg i.p.): 204%
- T/C (%) (murine leukemia L1210; 25 mg/kg i.p.): 227%
- T/C (%) (murine leukemia L1210; 50 mg/kg i.p.): toxic
- IC50 (concentration required for 50% inhibition of growth) [2]: 0.34 µg/mL

Compound: NC[C@@H]1OC2(CCCCC2)O[C@H]1CN.O=C1[O][Pt][O]C(=O)C12CCC2 [Example 46, cis-cyclobutane-1,1-dicarboxylato[(4S, 5S)-4,5-bis(aminomethyl)-1,3-dioxolane-2-spiro-1'-cyclohexane]platinum(II)]
- Solubility in water ([1]; 20° C.): 900 µg/mL
- IC50 (concentration required for 50% inhibition of growth) [2]: 2.23 µg/mL

Compound: CC(C)CC1OC2C[NH2+][Pt-2]3([NH2+]CC2O1)[O]CC(=O)[O]3 [Example 11, (glycolato-O,O')[(4R,5R)-4,5-bis(aminomethyl)-2-isobutyl-1,3-dioxolane]platinum(II)]
- Solubility in water ([1]; water): 4600 µg/mL
- T/C (%) (murine leukemia L1210; 3.1 mg/kg i.p.): 102%
- T/C (%) (murine leukemia L1210; 6.2 mg/kg i.p.): 146%
- T/C (%) (murine leukemia L1210; 12.5 mg/kg i.p.): 191%
- T/C (%) (murine leukemia L1210; 25 mg/kg i.p.): toxic
- T/C (%) (murine leukemia L1210; 50 mg/kg i.p.): toxic
- IC50 (concentration required for 50% inhibition of growth) [2]: 0.10 µg/mL

Compound: O=C1[O][Pt-2]2([NH2+]CC3OCOC3C[NH2+]2)[O]C(=O)C12CCC2 [Example 21, cis-cyclobutane-1,1-dicarboxylato[(4S,5S)-4,5-bis(aminomethyl)-1,3-dioxolane]platinum(II)]
- Solubility in water ([1]; 20° C.): 3100 µg/mL
- IC50 (concentration required for 50% inhibition of growth) [2]: 2.08 µg/mL

Compound: N.N.O=C([O-])C1(C(=O)[O-])CCC1.[Pt+2] [carboplatin, reference compound]
- Solubility in water ([1]; water): 10000 µg/mL
- T/C (%) (murine leukemia L1210; 6.2 mg/kg i.p.): 107%
- T/C (%) (murine leukemia L1210; 12.5 mg/kg i.p.): 125%
- T/C (%) (murine leukemia L1210; 25 mg/kg i.p.): 148%
- T/C (%) (murine leukemia L1210; 50 mg/kg i.p.): 196%
- T/C (%) (murine leukemia L1210; 100 mg/kg i.p.): 197%
- IC50 (concentration required for 50% inhibition of growth) [2]: 1.98 µg/mL

Compound: CC(C)C1OC2C[NH2+][Pt-2]3([NH2+]CC2O1)[O]C(=O)C1(CCC1)C(=O)[O]3 [Example 29, cis-cyclobutane-1,1-dicarboxylato[(4S,5S)-4,5-bis(aminomethyl)-2-isopropyl-1,3-dioxolane]platinum(II)]
- Solubility in water ([1]; 20° C.): 2000 µg/mL
- IC50 (concentration required for 50% inhibition of growth) [2]: 2.12 µg/mL

Compound: CCC1C(=O)[O][Pt-2]2([NH2+]CC3OC(C(C)C)OC3C[NH2+]2)[O]C1=O [Example 44, cis-ethylmalonato[(4R,5R)-4,5-bis(aminomethyl)-2-isopropyl-1,3-dioxolane]platinum(II)]
- Solubility in water ([1]; 20° C.): 7800 µg/mL
- T/C (%) (murine leukemia L1210; 25 mg/kg i.p.): 137%
- T/C (%) (murine leukemia L1210; 50 mg/kg i.p.): 169%
- T/C (%) (murine leukemia L1210; 100 mg/kg i.p.): 243%
- IC50 (concentration required for 50% inhibition of growth) [2]: 0.47 µg/mL

Compound: CCC1OC2C[NH2+][Pt-2]3([NH2+]CC2O1)[O]C(=O)C1(CCC1)C(=O)[O]3 [Example 25, cis-cyclobutane-1,1-dicarboxylato[(4S,5S)-4,5-bis(aminomethyl)-2-ethyl-1,3-dioxolane]platinum(II)]
- Solubility in water ([1]; 20° C.): 11800 µg/mL
- IC50 (concentration required for 50% inhibition of growth) [2]: 1.02 µg/mL

Compound: O=C1[O][Pt-2]2([NH2+]CC3OC4(CCCCC4)OC3C[NH2+]2)[O]C(=O)C12CCC2 [Example 32, cis-cyclobutane-1,1-dicarboxylato[(4R,5R)-4,5-bis(aminomethyl)-1,3-dioxolane-2-spiro-1'-cyclohexane]platinum(II)]
- Solubility in water ([1]; 20° C.): 900 µg/mL
- IC50 (concentration required for 50% inhibition of growth) [2]: 1.05 µg/mL

Compound: O=C1[O][Pt-2]2([NH2+]CC3OC4(CCCC4)OC3C[NH2+]2)[O]C(=O)C12CCC2 [Example 31, cis-cyclobutane-1,1-dicarboxylato[(4S,5S)-4,5-bis(aminomethyl)-1,3-dioxolane-2-spiro-1'-cyclopentane]platinum(II)]
- Solubility in water ([1]; water): 1900 µg/mL
- T/C (%) (murine leukemia L1210; 6.2 mg/kg i.p.): 102%
- T/C (%) (murine leukemia L1210; 12.5 mg/kg i.p.): 109%
- T/C (%) (murine leukemia L1210; 25 mg/kg i.p.): 94%
- T/C (%) (murine leukemia L1210; 50 mg/kg i.p.): 106%
- T/C (%) (murine leukemia L1210; 100 mg/kg i.p.): 117%
- IC50 (concentration required for 50% inhibition of growth) [2]: 1.75 µg/mL

Compound: CCCC1OC2C[NH2+][Pt-2]3([NH2+]CC2O1)[O]CC(=O)[O]3 [Example 10, (glycolato-O,O')[(4R,5R)-4,5-bis(aminomethyl)-2-propyl-1,3-dioxolane]platinum(II)]
- Solubility in water ([1]; water): > 30000 µg/mL
- T/C (%) (murine leukemia L1210; 3.1 mg/kg i.p.): 154%
- T/C (%) (murine leukemia L1210; 6.2 mg/kg i.p.): 161%
- T/C (%) (murine leukemia L1210; 12.5 mg/kg i.p.): 201%
- T/C (%) (murine leukemia L1210; 25 mg/kg i.p.): toxic
- T/C (%) (murine leukemia L1210; 50 mg/kg i.p.): toxic
- IC50 (concentration required for 50% inhibition of growth) [2]: 0.13 µg/mL

Compound: CC1[O][Pt][O]C1=O.CCC1OC(CN)C(CN)O1 [Example 18, (L-lactato-O,O')[(4R,5R)-4,5-bis(aminomethyl)-2-ethyl-1,3-dioxolane]platinum(II)]
- Number of dead mice for 7 days (ICR mice; female, 41.3 mg/kg i.p.): 3/6
- Number of dead mice, 1st day (ICR mice; female, 41.3 mg/kg i.p.): 0/6
- Number of dead mice, 5th day (ICR mice; female, 41.3 mg/kg i.p.): 1/6
- Number of dead mice, 6th day (ICR mice; female, 41.3 mg/kg i.p.): 2/5
- Lethality (ICR mice; female, 41.3 mg/kg i.p.): 55.0
- Number of dead mice for 7 days (ICR mice; female, 54.9 mg/kg i.p.): 4/6
- Number of dead mice, 1st day (ICR mice; female, 54.9 mg/kg i.p.): 0/6
- Number of dead mice, 3rd day (ICR mice; female, 54.9 mg/kg i.p.): 1/6
- Number of dead mice, 4th day (ICR mice; female, 54.9 mg/kg i.p.): 2/5
- Number of dead mice, 5th day (ICR mice; female, 54.9 mg/kg i.p.): 1/3
- Lethality (ICR mice; female, 54.9 mg/kg i.p.): 66.7
- Number of dead mice for 7 days (ICR mice; female, 71.4 mg/kg i.p.): 5/6
- Number of dead mice, 1st day (ICR mice; female, 71.4 mg/kg i.p.): 0/6
- Number of dead mice, 4th day (ICR mice; female, 71.4 mg/kg i.p.): 1/6
- Number of dead mice, 5th day (ICR mice; female, 71.4 mg/kg i.p.): 3/5
- Number of dead mice, 6th day (ICR mice; female, 71.4 mg/kg i.p.): 1/2
- Lethality (ICR mice; female, 71.4 mg/kg i.p.): 83.3
- Number of dead mice for 7 days (ICR mice; female, 91.8 mg/kg i.p.): 6/6
- Number of dead mice, 1st day (ICR mice; female, 91.8 mg/kg i.p.): 1/6
- Number of dead mice, 2nd day (ICR mice; female, 91.8 mg/kg i.p.): 1/6
- Number of dead mice, 3rd day (ICR mice; female, 91.8 mg/kg i.p.): 2/5
- Number of dead mice, 4th day (ICR mice; female, 91.8 mg/kg i.p.): 2/3
- Number of dead mice, 5th day (ICR mice; female, 91.8 mg/kg i.p.): 1/1
- Lethality (ICR mice; female, 91.8 mg/kg i.p.): 100.0
- Number of dead mice for 7 days (ICR mice; male, 41.3 mg/kg i.p.): 4/6
- Number of dead mice, 1st day (ICR mice; male, 41.3 mg/kg i.p.): 0/6
- Number of dead mice, 4th day (ICR mice; male, 41.3 mg/kg i.p.): 1/6
- Number of dead mice, 5th day (ICR mice; male, 41.3 mg/kg i.p.): 1/5
- Number of dead mice, 6th day (ICR mice; male, 41.3 mg/kg i.p.): 2/4
- Lethality (ICR mice; male, 41.3 mg/kg i.p.): 66.7
- Number of dead mice for 7 days (ICR mice; male, 54.9 mg/kg i.p.): 4/6
- Number of dead mice, 1st day (ICR mice; male, 54.9 mg/kg i.p.): 0/6
- Number of dead mice, 2nd day (ICR mice; male, 54.9 mg/kg i.p.): 1/6
- Number of dead mice, 3rd day (ICR mice; male, 54.9 mg/kg i.p.): 1/5
- Number of dead mice, 4th day (ICR mice; male, 54.9 mg/kg i.p.): 1/4
- Number of dead mice, 5th day (ICR mice; male, 54.9 mg/kg i.p.): 1/3
- Lethality (ICR mice; male, 54.9 mg/kg i.p.): 66.7
- Number of dead mice for 7 days (ICR mice; male, 71.4 mg/kg i.p.): 5/6
- Number of dead mice, 1st day (ICR mice; male, 71.4 mg/kg i.p.): 0/6
- Number of dead mice, 4th day (ICR mice; male, 71.4 mg/kg i.p.): 2/6
- Number of dead mice, 5th day (ICR mice; male, 71.4 mg/kg i.p.): 2/4
- Number of dead mice, 6th day (ICR mice; male, 71.4 mg/kg i.p.): 1/2
- Lethality (ICR mice; male, 71.4 mg/kg i.p.): 83.3
- Number of dead mice for 7 days (ICR mice; male, 91.8 mg/kg i.p.): 6/6
- Number of dead mice, 1st day (ICR mice; male, 91.8 mg/kg i.p.): 0/6
- Number of dead mice, 2nd day (ICR mice; male, 91.8 mg/kg i.p.): 3/6
- Number of dead mice, 4th day (ICR mice; male, 91.8 mg/kg i.p.): 1/3
- Number of dead mice, 5th day (ICR mice; male, 91.8 mg/kg i.p.): 1/2
- Number of dead mice, 6th day (ICR mice; male, 91.8 mg/kg i.p.): 1/1
- Lethality (ICR mice; male, 91.8 mg/kg i.p.): 100.0
- T/C (%) (murine leukemia L1210; 12.5 mg/kg i.p.): 206%
- T/C (%) (murine leukemia L1210; 25 mg/kg i.p.): 165%
- T/C (%) (murine leukemia L1210; 50 mg/kg i.p.): toxic
- IC50 (concentration required for 50% inhibition of growth) [2]: 0.32 µg/mL
